pIC50: −log10 of the molar value. Values joined by “and” are separate entries in the source; they are usually repeats but may differ in a detail not shown here. Equal values may be shown once. “Also recorded” adds a separate entry of the source. Read-outs that look alike come from different tables or passages of the source.
How the values were obtained:
DOT1L = DOT1L (Homo sapiens, UniProt Q8TEK3); assay: DOT1L affinity; type: binding
MLL-rearranged cells = assay: Pre-clinical study with MLL-rearranged and non-MLL rearranged cells (FIG. 3); type: cell-based; details: MLL-rearranged vs non-MLL rearranged cells
[1] = Adult Phase 1 dose escalation/expansion study: safety and clinical response; type: in vivo, human; design: key to clinical response, per patient: ▪: Complete Responder (Patient Nos. 16 and 18); ▴: Biological Effect (Leukocytosis) (Patient Nos. 1, 7, 13, 15, and 17); ●: Non-responder (Patient Nos. 2-6, 8-12, and 14)
Text: This open label dose escalation/expansion study of pinometostat enrolled patients ≥18 years (yrs) with R/R leukemia (NCT01684150). In the dose-escalation phase, patients with AML, ALL, mixed lineage leukemia (MLL), myelodysplastic syndrome, myeloproliferative neoplasm or chronic myeloid leukemia were eligible. […] Pinometostat was given via continuous intravenous infusion (CIV) for 21 of 28 day cycles in the dose escalation phase and CIV for 28 of 28 day cycles in the expansion phase, until disease progression or unacceptable toxicity. All patients underwent serial collection of PK and peripheral blood mononuclear cells (PBMC) for PD. […] As of Jun. 28, 2015, 49 patients have enrolled in the dose escalation and expansion phases. […] Correlations of transcript abundance and DNA variants detected with categorical (responder=CR or PR [n=3], or no response [n=15]) and continuous response parameters (time on study (“TOS”), mean=59 days: range=8-196 days) were performed.

[2] = tested on: H3K79-me2 at MLL-r target genes HOXA9 and MEIS1; assay: Adult Phase 1 study: H3K79-me2 ChIP-Seq in leukemic blasts; type: in vivo, human; details: 9 patients, 90 mg/m^2 expansion cohort
Procedure: (§1) This open label dose escalation/expansion study of pinometostat enrolled patients ≥18 years (yrs) with R/R leukemia (NCT01684150). In the dose-escalation phase, patients with AML, ALL, mixed lineage leukemia (MLL), myelodysplastic syndrome, myeloproliferative neoplasm or chronic myeloid leukemia were eligible. Eligibility in the two expansion cohorts: 90 mg/m^2 (n=17) and 54 mg/m^2 (n=6), was restricted to patients with MLL-r or MLL-partial tandem duplication (MLL-PTD). Pinometostat was given via continuous intravenous infusion (CIV) for 21 of 28 day cycles in the dose escalation phase and CIV for 28 of 28 day cycles in the expansion phase, until disease progression or unacceptable toxicity. All patients underwent serial collection of PK and peripheral blood mononuclear cells (PBMC) for PD. Leukemic blasts were isolated from PBMCs using flow cytometry and quantified for dimethylation of H3K79 (H3K79-me2) by ChIP-Seq.

[3] = Adult Phase 1 study: pharmacokinetics; type: in vivo, human; details: adults, CIV
Procedure: as §1

[4] = Pediatric Phase 1 study: safety; type: in vivo, human; details: children with R/R leukemia
Procedure: (§2) An open label dose escalation study of pinometostat was performed in patients (pts) aged 3 months to 18 […] leukemia (NCT02141828). Pinometostat was administered via continuous intravenous infusion until disease progression or unacceptable toxicity. Patients were assigned to one of two age-based dose escalation […] developed from simulations of pediatric exposures using a previously reported physiologically-based PK (PBPK) model (Waters, 2014). All patients underwent serial collection of PK and peripheral blood mononuclear cells (PBMC) for PD. Leukemic blasts were isolated from PBMCs using flow cytometry and quantified for di-methylation of H3K79 (H3K79-me2) by ChIP-Seq. As of Jun. 28, 2015, 11 patients have enrolled in the dose escalation of the study consisting of 10 patients (6 patients at 70 mg/m^2/day, 4 patients at 90 mg/m^2/day) in the older age cohort (1 to 18 yr) and 1 patient (45 mg/m^2/day) in the younger age cohort (<1 yr).

[5] = tested on: H3K79-me2 at MLL-r target genes HOXA9 and MEIS1; assay: Pediatric Phase 1 study: H3K79-me2 ChIP-Seq in leukemic blasts; type: in vivo, human; details: 2 of 2 pediatric patients analyzed
Procedure: as §2, with “ChIP-Seq.” for “ChIP-Seq. As of Jun. 28, 2015, 11 patients have enrolled in the dose escalation of the study consisting of 10 patients (6 patients at 70 mg/m^2/day, 4 patients at 90 mg/m^2/day) in the older age cohort (1 to 18 yr) and 1 patient (45 mg/m^2/day) in the younger age cohort (<1 yr).”

[6] = Pediatric Phase 1 study: pharmacokinetics; type: in vivo, human
Procedure: as §2, with “ChIP-Seq.” for “ChIP-Seq. As of Jun. 28, 2015, 11 patients have enrolled in the dose escalation of the study consisting of 10 patients (6 patients at 70 mg/m^2/day, 4 patients at 90 mg/m^2/day) in the older age cohort (1 to 18 yr) and 1 patient (45 mg/m^2/day) in the younger age cohort (<1 yr).”

[7] = tested on: 14 cell lines (MLL-r or MLL-PTD); assay: Cell proliferation in 14 cell lines; type: cell-based
Procedure: RNA and DNA were isolated from PBMCs and/or bone marrow collected prior to treatment from 18 patients enrolled in the adult pinometostat Phase 1 study (CT.gov: NCT01684150), at the following doses 24 (n=2), 36 (n=3), 54 (n=6), 80 (n=3) and 90 mg/m^2/day doses (n=4). mRNA transcript abundance was assessed using whole genome RNASeq and DNA variants were determined using a 194 gene panel, MyAML (Genection Inc.). Correlations of transcript abundance and DNA variants detected with categorical (responder=CR or PR [n=3], or no response [n=15]) and continuous response parameters (time on study (“TOS”), mean=59 days: range=8-196 days) were performed. For cell lines, whole genome RNASeq data was generated from 14 cell lines (MLL-r or MLL-PTD) with a range of in vitro sensitivity to pinometostat (cell proliferation IC50 2 nM to >10 μM) and RNA transcripts identified as correlated with IC5o were submitted for pathway analysis.

[8] = tested on: leukemia cell lines MOLM-13, OCI-AML4, and SKM-1; assay: Growth inhibition assays, pinometostat with RAS pathway inhibitors; type: cell-based; details: pinometostat 3 μM, 300 nM, 150 nM or 75 nM plus SCH772984, Trametinib or Sorafenib; FIG. 13
Procedure: Growth inhibition assays were performed using leukemia cell lines to determine whether there is any synergy between pinometostat and RAS pathway inhibitors. The leukemia cell lines used were MOLM-13, OCI-AML4, and SKM-1. For these studies, different RAS pathway inhibitors were used, including SCH772984 (e.g., an ERK inhibitor), Trametinib (e.g., a MEK inhibitor), and Sorafenib (e.g., a Raf kinase inhibitor).

[9] = tested on: MLL-rearranged cells and xenografts; details: cited from earlier work
[10] = Stein 2014 ASH abstract 387; cited from earlier work
[11] = 18 adult patients of biomarker analysis
[12] = dose level 24 mg/m^2, listed as pinometostat
[13] = dose level 36 mg/m^2, listed as pinometostat
[14] = dose level 54 mg/m^2, listed as pinometostat
[15] = dose level 90 mg/m^2, listed as pinometostat

DOT1L, sequence (Q8TEK3 whole entry): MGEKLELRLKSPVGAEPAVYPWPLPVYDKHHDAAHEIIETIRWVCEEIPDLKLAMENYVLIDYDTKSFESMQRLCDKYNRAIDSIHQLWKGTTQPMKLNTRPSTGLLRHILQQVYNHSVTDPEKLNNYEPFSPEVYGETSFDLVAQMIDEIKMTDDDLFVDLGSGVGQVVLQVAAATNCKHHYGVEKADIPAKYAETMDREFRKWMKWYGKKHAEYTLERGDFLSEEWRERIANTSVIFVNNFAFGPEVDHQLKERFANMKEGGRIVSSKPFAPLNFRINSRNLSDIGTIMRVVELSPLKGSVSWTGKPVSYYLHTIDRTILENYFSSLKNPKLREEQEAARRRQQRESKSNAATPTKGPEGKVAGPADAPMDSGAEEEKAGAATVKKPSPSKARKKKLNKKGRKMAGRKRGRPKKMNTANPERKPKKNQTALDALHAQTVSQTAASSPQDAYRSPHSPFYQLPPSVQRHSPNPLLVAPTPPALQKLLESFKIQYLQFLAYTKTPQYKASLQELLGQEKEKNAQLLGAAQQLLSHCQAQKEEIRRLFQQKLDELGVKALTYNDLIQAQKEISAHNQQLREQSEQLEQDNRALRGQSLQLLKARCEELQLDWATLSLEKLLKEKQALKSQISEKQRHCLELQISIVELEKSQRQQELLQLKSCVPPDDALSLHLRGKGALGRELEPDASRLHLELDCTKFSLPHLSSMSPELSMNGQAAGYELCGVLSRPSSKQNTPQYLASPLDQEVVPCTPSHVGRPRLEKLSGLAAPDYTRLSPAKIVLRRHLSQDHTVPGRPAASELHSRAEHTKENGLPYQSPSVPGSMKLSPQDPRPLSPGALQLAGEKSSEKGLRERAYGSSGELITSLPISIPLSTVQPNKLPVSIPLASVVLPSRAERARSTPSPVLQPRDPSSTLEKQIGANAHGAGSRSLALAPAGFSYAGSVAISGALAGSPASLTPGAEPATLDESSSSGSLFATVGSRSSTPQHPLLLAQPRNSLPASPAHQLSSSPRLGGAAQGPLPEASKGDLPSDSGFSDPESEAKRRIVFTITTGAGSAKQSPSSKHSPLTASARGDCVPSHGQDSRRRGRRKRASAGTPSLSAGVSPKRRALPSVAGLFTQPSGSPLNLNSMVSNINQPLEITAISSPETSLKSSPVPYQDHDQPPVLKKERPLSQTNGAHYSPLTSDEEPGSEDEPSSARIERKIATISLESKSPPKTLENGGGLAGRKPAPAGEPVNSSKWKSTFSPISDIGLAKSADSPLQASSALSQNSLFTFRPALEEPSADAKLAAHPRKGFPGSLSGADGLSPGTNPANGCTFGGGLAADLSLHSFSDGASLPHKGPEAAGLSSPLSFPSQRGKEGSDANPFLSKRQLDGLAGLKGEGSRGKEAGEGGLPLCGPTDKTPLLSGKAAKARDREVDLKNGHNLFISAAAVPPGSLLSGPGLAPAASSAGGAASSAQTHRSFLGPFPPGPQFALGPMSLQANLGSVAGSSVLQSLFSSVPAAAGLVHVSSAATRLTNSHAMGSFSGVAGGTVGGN

Which “affinity for DOT1L” value (DOT1L) does the source give for CC(C)N(C[C@H]1O[C@@H](n2cnc3c(N)ncnc32)[C@H](O)[C@@H]1O)[C@H]1C[C@@H](CCc2nc3cc(C(C)(C)C)ccc3[nH]2)C1 [Compound A2, (2R,3R,4S,5R)-2-(6-amino-9H-purin-9-yl)-5-((((1r,3S)-3-(2-(5-(tert-butyl)-1H-benzo[d]imidazol-2yl)ethyl)cyclobutyl)(isopropyl)amino)methyl)tetrahydrofuran-3,4-diol] here?
The value was “sub-nanomolar”.

And the “killing of genetically defined cancer cells” value (MLL-rearranged cells)?
The value was “selective killing”.

And the “time on study (TOS), mean” value [1, 11]?
Its value is 59 days.

And the “time on study (TOS), range” value [1, 11]?
The value was 8 to 196 days.

And the safety profile ([1]; CIV, adults with R/R leukemia)?
The safety profile was “acceptable safety profile”.

And the “differentiation effect in patients with MLL-r” value ([1]; FIG. 8, micrographs of blood and bone marrow)?
Its value is “leads to a differentiation effect”.

And the drug-related treatment discontinuations ([1]; adult MLL-r and MLL-PTD, 90 mg/m^2/day uninterrupted, expansion stage)?
Its drug-related treatment discontinuations is “no drug-related treatment discontinuations”.

What about the “objective response: PR” value ([1]; adults, 49 patients) of the same compound?
The value was 1 pt.

What about the “objective response: cytogenetic CR (MLL negative by FISH)” value ([1]; adults, 49 patients) of the same compound?
Its value is 1 pt.

And the “objective response: morphologic CR” value ([1]; adults, 49 patients)?
Its value is 1 pt.

And the “resolution of leukemia cutis” value ([1]; adults, 49 patients)?
The value was 3 pts.

What about the “patients with leukocytosis or differentiation” value ([1]; adults, absolute monocyte and neutrophil 50% above baseline and above upper limit of normal) of the same compound?
The value was “Nine”.

And the “Time on Study, per patient” value [1, 12]?
The value was 49 days and 8 days.

And the “clinical response, per patient” value [1, 12]?
The value was “● and ▴”.

What about the “Time on Study, per patient” value [1, 13] of the same compound?
Its value is 33 days and 65 days and 21 days.

What about the “clinical response, per patient” value [1, 13] of the same compound?
Its value is “▴ (2×) and ●”.

What about the “Time on Study, per patient” value [1, 14] of the same compound?
The value was 49 days and 110 days and 196 days and 21 days.

What about the “clinical response, per patient” value [1, 14] of the same compound?
Its value is “● (2×) and ▪ (2×)”.

And the “clinical response, per patient” value ([1]; dose level 80 mg/m^2)?
Its value is “●”.

And the “Time on Study, per patient” value ([1]; dose level 80 mg/m^2, listed as pinometostat)?
The value was 41 days and 82 days.

And the “Time on Study, per patient” value [1, 15]?
The value was 31 days and 38 days and 50 days and 86 days and 136 days and 15 days and 28 days.

And the “clinical response, per patient” value [1, 15]?
Its value is “● (5×) and ▴ (2×)”.

And the “median inhibition of H3K79-me2 methylation at HOXA9 and MEIS1” value [2]?
The value was 61%.

And the “range of inhibition of H3K79-me2 methylation at HOXA9 and MEIS1” value [2]?
The value was 13- 91%.

What about the “attainment of steady-state plasma concentrations (Css)” value [3] of the same compound?
The value was “Day 1”.

And the “dose proportionality of PK” value [3]?
Its value is “Dose proportional PK”.

What about the safety profile [4] of the same compound?
The safety profile was “acceptable safety profile”.

What about the “range of inhibition of H3K79-me2 methylation at HOXA9 and MEIS1” value [5] of the same compound?
Its value is 44-72%.

What about the “Steady-state CSF concentrations” value ([6]; children) of the same compound?
Its value is < 2 ng/mL.

What about the “Steady-state plasma concentrations (Css)” value ([6]; children ≥1 yr, 70 and 90 mg/m^2 doses) of the same compound?
Its value is 800 to 1600 ng/mL.

And the pIC50 ([7]; least sensitive of 14 cell lines, read-out: cell proliferation IC50, upper end of range)?
The pIC50 was < 5.00.

And the pIC50 ([7]; most sensitive of 14 cell lines, read-out: cell proliferation IC50, lower end of range)?
Its pIC50 is 8.70.

What about the “effect on inhibition of cell growth, combination of RAS pathway inhibitor and pinometostat” value (“effect on inhibition of cell growth” for short) [8] of the same compound?
Its value is “synergistic effect; also recorded: synergistic cell killing”.

And the “MLL target gene expression” value [9]?
The value was “decreased”.

What about the “histone H3K79 methylation” value [9] of the same compound?
Its value is “reduced”.

And the leukemia cell kill ([9]; listed as Pinometostat)?
The leukemia cell kill was “induced selective leukemia cell kill”.

What about the leukemia cell kill ([9]; listed as pinometostat) of the same compound?
The leukemia cell kill was “selective leukemia cell kill”.

What about the “clinical activity, preliminary results of the adult trial” value [10] of the same compound?
Its value is “complete remissions in a subset of patients”.

Which “effect on inhibition of cell growth” value [8] does the source give for O=C(Nc1ccc2[nH]nc(-c3ccncc3)c2c1)[C@@H]1CCN(CC(=O)N2CCN(c3ccc(-c4ncccn4)cc3)CC2)C1 [SCH772984, reference compound] here?
Its value is “synergistic effect”.

With CNC(=O)c1cc(Oc2ccc(NC(=O)Nc3ccc(Cl)c(C(F)(F)F)c3)cc2)ccn1 [Sorafenib, reference compound] as the compound, how does the “effect on inhibition of cell growth” value [8] read?
Its value is “synergistic effect”.
